Reference: ChEMBL document CHEMBL3853318, “Structure-Based Optimization of Potent, Selective, and Orally Bioavailable CDK8 Inhibitors Discovered by High-Throughput Screening” (J Med Chem, 2016)

Assays:
CDK8/Cyclin C = CDK8/Cyclin C (Homo sapiens, UniProt P49336); assay: Inhibition of Alexa647 tracer binding to full length recombinant human His-tagged CDK8/cyclin C expressed in Baculovirus expression system preincubated for 20 mins followed by tracer addition and incubated in dark for 60 mins by FRET-based Lanthascreen assay
CDK8/Cyclin C, sequence (P49336 whole entry): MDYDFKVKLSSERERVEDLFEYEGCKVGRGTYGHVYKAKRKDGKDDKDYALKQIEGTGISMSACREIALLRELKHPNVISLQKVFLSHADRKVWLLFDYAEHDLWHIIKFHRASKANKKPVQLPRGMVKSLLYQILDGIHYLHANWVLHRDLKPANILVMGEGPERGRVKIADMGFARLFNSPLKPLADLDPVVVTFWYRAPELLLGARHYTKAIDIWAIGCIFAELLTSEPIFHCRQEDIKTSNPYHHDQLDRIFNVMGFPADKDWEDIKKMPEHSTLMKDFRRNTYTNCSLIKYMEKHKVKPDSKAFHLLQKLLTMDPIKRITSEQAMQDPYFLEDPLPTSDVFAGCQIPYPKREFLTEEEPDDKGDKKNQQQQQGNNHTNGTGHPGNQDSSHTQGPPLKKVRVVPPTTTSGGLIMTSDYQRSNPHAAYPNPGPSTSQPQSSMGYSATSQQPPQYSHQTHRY
CDK8/Cyclin C, sequence (P24863 whole entry, further chain): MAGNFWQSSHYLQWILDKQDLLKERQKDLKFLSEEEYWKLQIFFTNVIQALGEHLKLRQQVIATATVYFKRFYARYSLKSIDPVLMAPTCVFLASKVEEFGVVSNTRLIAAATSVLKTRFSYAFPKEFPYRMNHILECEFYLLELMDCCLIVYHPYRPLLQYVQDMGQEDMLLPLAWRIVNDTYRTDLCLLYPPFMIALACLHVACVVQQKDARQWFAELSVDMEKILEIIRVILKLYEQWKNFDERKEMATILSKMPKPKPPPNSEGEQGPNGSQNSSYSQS

[1] = target: Cyclin-dependent kinase 8 (Homo sapiens, UniProt P49336); assay: Inhibition of CDK8 in human 7dF3 cells preincubated for 2 hrs followed by beta-oestradiol addition measured after 24 hrs by luciferase reporter gene assay; format: cell-based
Cyclin-dependent kinase 8, sequence (P49336 whole entry): as the sequence (P49336 whole entry) above

[2] = target: T1, Tyrosine-protein kinase JAK2 (Homo sapiens, UniProt O60674); assay: Inhibition of JAK2 (unknown origin) at 1 uM relative to control
T1 sequence (O60674 whole entry): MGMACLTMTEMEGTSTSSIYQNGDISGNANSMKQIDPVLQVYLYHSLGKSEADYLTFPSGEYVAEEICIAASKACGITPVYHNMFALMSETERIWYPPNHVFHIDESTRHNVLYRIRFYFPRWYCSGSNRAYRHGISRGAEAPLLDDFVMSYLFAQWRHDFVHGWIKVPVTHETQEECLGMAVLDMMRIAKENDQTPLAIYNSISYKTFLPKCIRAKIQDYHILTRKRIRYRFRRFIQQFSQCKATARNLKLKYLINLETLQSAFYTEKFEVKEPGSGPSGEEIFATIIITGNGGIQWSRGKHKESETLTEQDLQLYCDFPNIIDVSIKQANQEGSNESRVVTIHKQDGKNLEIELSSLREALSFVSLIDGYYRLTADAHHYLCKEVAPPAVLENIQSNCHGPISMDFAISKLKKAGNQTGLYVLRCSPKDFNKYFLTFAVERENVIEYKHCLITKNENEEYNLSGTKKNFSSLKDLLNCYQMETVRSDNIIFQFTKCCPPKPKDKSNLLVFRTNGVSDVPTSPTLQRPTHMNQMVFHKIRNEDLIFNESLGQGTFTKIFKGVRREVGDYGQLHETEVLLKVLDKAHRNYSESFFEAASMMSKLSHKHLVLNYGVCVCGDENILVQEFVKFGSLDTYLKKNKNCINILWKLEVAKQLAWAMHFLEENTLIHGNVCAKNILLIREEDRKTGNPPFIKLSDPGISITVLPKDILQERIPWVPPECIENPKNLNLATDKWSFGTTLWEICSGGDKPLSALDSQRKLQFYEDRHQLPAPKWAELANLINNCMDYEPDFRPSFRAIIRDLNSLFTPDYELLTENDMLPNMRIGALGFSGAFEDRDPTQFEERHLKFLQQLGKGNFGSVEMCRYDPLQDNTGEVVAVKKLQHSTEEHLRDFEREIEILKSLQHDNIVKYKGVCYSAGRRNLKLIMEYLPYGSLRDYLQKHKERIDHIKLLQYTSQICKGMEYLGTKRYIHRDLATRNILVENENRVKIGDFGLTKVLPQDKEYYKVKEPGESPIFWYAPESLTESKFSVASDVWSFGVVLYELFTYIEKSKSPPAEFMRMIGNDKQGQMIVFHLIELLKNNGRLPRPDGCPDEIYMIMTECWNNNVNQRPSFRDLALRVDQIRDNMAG

[3] = target: T2, Non-receptor tyrosine-protein kinase TYK2 (Homo sapiens, UniProt P29597); assay: Inhibition of TYK2 (unknown origin) at 1 uM relative to control
T2 sequence (P29597 whole entry): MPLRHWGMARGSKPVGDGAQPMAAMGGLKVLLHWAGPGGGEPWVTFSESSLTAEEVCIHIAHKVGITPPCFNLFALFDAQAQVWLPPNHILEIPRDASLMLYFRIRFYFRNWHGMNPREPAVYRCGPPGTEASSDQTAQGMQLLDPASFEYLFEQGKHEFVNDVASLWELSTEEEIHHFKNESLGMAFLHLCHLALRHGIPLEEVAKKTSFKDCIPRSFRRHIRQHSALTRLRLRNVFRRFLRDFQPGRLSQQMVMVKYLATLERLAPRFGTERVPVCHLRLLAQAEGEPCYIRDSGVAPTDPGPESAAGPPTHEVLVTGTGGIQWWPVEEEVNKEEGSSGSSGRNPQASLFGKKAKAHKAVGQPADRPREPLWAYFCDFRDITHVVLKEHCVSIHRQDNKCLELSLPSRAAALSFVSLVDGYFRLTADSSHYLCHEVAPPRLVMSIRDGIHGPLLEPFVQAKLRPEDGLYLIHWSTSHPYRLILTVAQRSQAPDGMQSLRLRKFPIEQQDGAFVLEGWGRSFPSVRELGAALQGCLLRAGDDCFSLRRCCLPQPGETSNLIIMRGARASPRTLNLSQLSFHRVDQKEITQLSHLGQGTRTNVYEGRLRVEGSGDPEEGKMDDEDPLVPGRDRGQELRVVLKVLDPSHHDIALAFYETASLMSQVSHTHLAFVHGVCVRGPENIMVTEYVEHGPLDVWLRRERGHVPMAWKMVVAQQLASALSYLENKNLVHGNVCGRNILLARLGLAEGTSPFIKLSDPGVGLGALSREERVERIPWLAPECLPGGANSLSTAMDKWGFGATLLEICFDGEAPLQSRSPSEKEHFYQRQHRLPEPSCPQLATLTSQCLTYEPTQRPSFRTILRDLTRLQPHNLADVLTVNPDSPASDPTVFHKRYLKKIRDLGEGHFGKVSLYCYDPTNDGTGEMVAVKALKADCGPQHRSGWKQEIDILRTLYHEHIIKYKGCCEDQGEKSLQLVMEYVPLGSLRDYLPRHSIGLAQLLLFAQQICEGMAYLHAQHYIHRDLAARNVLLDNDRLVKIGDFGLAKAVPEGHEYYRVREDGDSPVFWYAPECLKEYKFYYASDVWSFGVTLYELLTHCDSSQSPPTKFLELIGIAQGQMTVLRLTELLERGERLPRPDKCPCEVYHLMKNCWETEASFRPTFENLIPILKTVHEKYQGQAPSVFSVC

[4] = target: T3, Tyrosine-protein kinase JAK1 (Homo sapiens, UniProt P23458); assay: Inhibition of JAK1 (unknown origin) at 1 uM relative to control
T3 sequence (P23458 whole entry): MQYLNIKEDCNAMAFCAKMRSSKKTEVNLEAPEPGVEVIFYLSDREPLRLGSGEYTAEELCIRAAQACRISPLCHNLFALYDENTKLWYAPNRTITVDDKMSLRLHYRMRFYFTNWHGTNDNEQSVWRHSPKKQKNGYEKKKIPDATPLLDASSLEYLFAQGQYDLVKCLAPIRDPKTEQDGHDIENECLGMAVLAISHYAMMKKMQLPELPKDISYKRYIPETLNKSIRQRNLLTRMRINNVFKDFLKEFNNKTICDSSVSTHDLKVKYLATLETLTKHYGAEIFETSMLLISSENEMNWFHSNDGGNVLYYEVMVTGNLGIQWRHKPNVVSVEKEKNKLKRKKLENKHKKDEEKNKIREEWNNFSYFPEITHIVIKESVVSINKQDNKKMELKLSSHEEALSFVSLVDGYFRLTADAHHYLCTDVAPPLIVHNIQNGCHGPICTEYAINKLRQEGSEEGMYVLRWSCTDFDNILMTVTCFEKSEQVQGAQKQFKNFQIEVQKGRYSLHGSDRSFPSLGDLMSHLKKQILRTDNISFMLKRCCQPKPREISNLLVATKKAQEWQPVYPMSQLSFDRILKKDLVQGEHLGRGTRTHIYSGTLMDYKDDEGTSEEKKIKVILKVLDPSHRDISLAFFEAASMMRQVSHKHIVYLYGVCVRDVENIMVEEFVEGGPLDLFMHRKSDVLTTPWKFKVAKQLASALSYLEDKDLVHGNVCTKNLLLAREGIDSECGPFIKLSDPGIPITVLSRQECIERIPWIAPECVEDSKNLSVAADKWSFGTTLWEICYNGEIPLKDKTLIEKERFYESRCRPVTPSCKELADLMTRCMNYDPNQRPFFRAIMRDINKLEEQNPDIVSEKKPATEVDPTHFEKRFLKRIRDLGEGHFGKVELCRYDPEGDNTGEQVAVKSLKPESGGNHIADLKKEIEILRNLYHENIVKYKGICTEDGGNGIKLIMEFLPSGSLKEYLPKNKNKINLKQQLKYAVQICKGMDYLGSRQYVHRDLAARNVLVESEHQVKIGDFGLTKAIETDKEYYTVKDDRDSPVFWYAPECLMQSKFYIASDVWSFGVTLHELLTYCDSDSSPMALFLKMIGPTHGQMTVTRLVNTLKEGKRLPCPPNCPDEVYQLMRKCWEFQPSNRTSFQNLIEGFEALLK

[5] = Intrinsic clearance in human liver microsomes at 1 uM preincubated for 5 mins followed by NADPH addition measured after 5 to 30 mins by LC-MS/MS analysis; format: ADME; settings: read-out: CLH
[6] = Intrinsic clearance in mouse liver microsomes at 1 uM preincubated for 5 mins followed by NADPH addition measured after 5 to 30 mins by LC-MS/MS analysis; format: ADME; settings: read-out: CLH
[7] = Intrinsic clearance in rat liver microsomes at 1 uM preincubated for 5 mins followed by NADPH addition measured after 5 to 30 mins by LC-MS/MS analysis; format: ADME; settings: read-out: CLH
[8] = target: T4, Rho-associated protein kinase 2 (Homo sapiens, UniProt O75116); assay: Inhibition of ROCK-2 (unknown origin) at 1 uM relative to control
[9] = target: T5, Tyrosine-protein kinase JAK3 (Homo sapiens) (UniProt P52333); assay: Inhibition of JAK3 (unknown origin) at 1 uM relative to control
T5 sequence (whole entry): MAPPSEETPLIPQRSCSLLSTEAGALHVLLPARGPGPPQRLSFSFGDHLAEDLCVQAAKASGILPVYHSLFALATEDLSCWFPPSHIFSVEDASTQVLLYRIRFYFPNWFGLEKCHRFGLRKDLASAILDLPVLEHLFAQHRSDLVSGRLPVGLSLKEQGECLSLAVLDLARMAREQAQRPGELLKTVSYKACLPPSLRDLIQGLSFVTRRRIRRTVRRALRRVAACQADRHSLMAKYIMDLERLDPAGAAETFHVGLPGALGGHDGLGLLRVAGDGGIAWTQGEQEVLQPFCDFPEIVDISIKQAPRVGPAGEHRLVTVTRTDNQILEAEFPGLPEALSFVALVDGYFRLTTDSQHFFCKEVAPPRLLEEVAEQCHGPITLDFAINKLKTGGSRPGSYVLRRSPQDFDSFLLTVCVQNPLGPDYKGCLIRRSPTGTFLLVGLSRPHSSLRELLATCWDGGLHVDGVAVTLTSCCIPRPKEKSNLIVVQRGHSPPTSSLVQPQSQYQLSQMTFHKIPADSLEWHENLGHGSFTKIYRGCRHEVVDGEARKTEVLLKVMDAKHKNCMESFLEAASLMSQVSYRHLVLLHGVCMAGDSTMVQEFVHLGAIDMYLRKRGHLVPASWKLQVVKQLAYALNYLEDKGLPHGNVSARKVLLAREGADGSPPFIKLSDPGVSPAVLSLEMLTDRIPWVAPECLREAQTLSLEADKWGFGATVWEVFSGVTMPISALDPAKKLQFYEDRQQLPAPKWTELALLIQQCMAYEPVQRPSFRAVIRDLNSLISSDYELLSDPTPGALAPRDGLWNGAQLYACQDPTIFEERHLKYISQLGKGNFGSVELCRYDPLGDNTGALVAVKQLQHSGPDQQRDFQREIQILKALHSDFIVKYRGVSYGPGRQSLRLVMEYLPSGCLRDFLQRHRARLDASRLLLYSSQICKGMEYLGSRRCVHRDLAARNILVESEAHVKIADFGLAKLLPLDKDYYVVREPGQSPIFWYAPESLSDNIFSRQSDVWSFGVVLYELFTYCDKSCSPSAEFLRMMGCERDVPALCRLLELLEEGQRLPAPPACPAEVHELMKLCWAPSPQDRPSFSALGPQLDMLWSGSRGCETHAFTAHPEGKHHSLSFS

7dF3 = assay: Ratio of IC50 for CDK8 in human 7dF3 cells to IC50 for Alexa647 tracer binding to full length recombinant human His-tagged CDK8/cyclin C; format: cell-based
[10] = target: T6, Tyrosine-protein kinase JAK3 (Homo sapiens, UniProt P52333); assay: Inhibition of JAK3 (unknown origin)
T6 sequence (P52333 whole entry): T5 sequence (whole entry)

[11] = Apparent permeability from apical to basolateral side in human Caco2 cells at 1 uM after 2 hrs by Transwell assay; format: ADME, cell-based; settings: Caco-2
[12] = target: T3, Tyrosine-protein kinase JAK1; assay: Inhibition of JAK1 (unknown origin)
[13] = target: T2, Non-receptor tyrosine-protein kinase TYK2; assay: Inhibition of TYK2 (unknown origin)
[14] = Efflux ratio of permeability in human Caco2 cells at 1 uM after 2 hrs by Transwell assay; format: ADME, cell-based; settings: Caco-2
[15] = target: T1, Tyrosine-protein kinase JAK2; assay: Inhibition of JAK2 (unknown origin)
[16] = target: T4, Rho-associated protein kinase 2; assay: Inhibition of ROCK-2 (unknown origin)

| Compound | IC50 (CDK8/Cyclin C) [nM] | IC50 [1] [nM] | inhibition [2] [%] | inhibition [3] [%] | inhibition [4] [%] | microsomal CLint at 1 µM [5] [µL/min/mg] | microsomal CLint at 1 µM [6] [µL/min/mg] | microsomal CLint at 1 µM [7] [µL/min/mg] | inhibition [8] [%] | inhibition [9] [%] | Ratio IC50 (7dF3) | IC50 [10] [nM] | Papp A→B at 2 h, 1 µM [11] [×10⁻⁶ cm/s] | IC50 [12] [nM] | IC50 [13] [nM] | efflux ratio at 2 h, 1 µM [14] | IC50 [15] [nM] | IC50 [16] [nM] |
| --- | --- | --- | --- | --- | --- | --- | --- | --- | --- | --- | --- | --- | --- | --- | --- | --- | --- | --- |
| Nc1n[nH]c2ccc(C(=O)N3CCC[C@H]3c3ccc(Br)cc3)cc12 | 3.1 | 19 | 88 | 76 | 88 | < 10 | 14 | < 10 | 65 | 76 | – | – | – | – | – | – | – | – |
| Nc1n[nH]c2ccc(C(=O)N3CC[C@H]3c3ccc(F)cc3)cc12 | 49 | 435 | 24 | 45 | 63 | 10 | 10 | < 10 | 12 | 21 | – | – | – | – | – | – | – | – |
| Cc1ncc2ccc(C(=O)N3CCC[C@H]3c3ccc(Cl)cc3)cn12 | 9 | 90 | – | – | – | 390 | 63 | 108 | – | – | – | – | – | – | – | – | – | – |
| Cc1n[nH]c2ccc(C(=O)N3CCC[C@H]3c3ccc(Cl)cc3)nc12 | 1.3 | 2.8 | – | – | – | 100 | 29 | 69 | – | – | – | – | – | – | – | – | – | – |
| Cc1n[nH]c2ccc(C(=O)N3CCOCC3c3ccc(Cl)cc3)cc12 (centres undefined) | 8.5 | 115 | – | – | – | 135 | 29 | 44 | – | – | – | – | – | – | – | – | – | – |
| Nc1n[nH]c2ccc(C(=O)N3CC[C@@H](c4ccc(Cl)cc4)C3)cc12 | 24 | 150 | – | 23 | 24 | < 10 | 19 | 26 | 20 | 15 | – | – | – | – | – | – | – | – |
| CCOc1ccccc1CNC(=O)c1nn2c(C)ncc2s1 | 129 | 1650 | – | – | – | > 1000 | 119 | 435 | – | – | 3 | – | – | – | – | – | – | – |
| Cc1ncc2sc(C(=O)N3CCCC3c3ccc(Cl)cc3)nn12 (centres undefined) | 17 | 100 | – | – | – | 52 | 388 | 719 | – | – | – | – | – | – | – | – | – | – |
| Cc1ncc2sc(C(=O)N3CCCC3c3ccc(F)cc3)nn12 (centres undefined) | 60 | 290 | – | – | – | 38 | 129 | 280 | – | – | 3 | – | – | – | – | – | – | – |
| Cc1n[nH]c2ccc(C(=O)N3CC[C@H]3c3ccc(Cl)cc3)cc12 | 1.7 | 2 | – | – | – | 908 | 113 | 62 | – | – | – | – | – | – | – | – | – | – |
| CCOc1ccccc1C(C)NC(=O)c1nn2c(C)ncc2s1 (centres undefined) | 781 | 2450 | – | – | – | 61 | > 1000 | 38 | – | – | 3 | – | – | – | – | – | – | – |
| Cc1ncc2sc(C(=O)N3CCCC3c3ccccc3)nn12 (centres undefined) | 77 | 415 | – | – | – | 56 | 145 | 446 | – | – | 3 | – | – | – | – | – | – | – |
| Cc1ncc2sc(C(=O)N3CCC[C@@H]3c3ccc(Cl)cc3)nn12 | 110 | 1600 | – | – | – | 60 | 514 | 449 | – | – | – | – | – | – | – | – | – | – |
| Nc1n[nH]c2ccc(C(=O)N3CCC[C@H]3c3ccc(Cl)cc3)cc12 | 4.9 | 28 | 84 | 70 | 86 | 23 | 10 | 10 | 42 | 79 | – | 219 | 33.7 | 90 | 279 | 2.2 | 286 | 1330 |
| Nc1n[nH]c2ccc(C(=O)N3CCC[C@H]3c3ccc(F)cc3)cc12 | 32 | 120 | 59 | 62 | 72 | < 10 | < 10 | < 10 | 27 | 58 | – | – | – | – | – | – | – | – |
| Cc1n[nH]c2cnc(C(=O)N3CCC[C@H]3c3ccc(Cl)cc3)cc12 | 11 | 125 | – | – | – | 206 | 61 | 70 | – | – | – | – | – | – | – | – | – | – |
| O=C(c1ccc2[nH]ncc2c1)N1CCC[C@H]1c1ccc(Cl)cc1 | 32 | 100 | – | – | – | 354 | 86 | 94 | – | – | – | – | – | – | – | – | – | – |
| Nc1n[nH]c2ccc(C(=O)N3CCCC[C@H]3c3ccc(F)cc3)cc12 | 45 | 800 | -2 | 17 | 21 | < 10 | 28 | 15 | 22 | – | – | – | – | – | – | – | – | – |
| CNc1n[nH]c2ccc(C(=O)N3CCC[C@H]3c3ccc(Cl)cc3)cc12 | 5.4 | 12 | 34 | 32 | 34 | 18 | 31 | 28 | 17 | 37 | – | – | – | – | – | – | – | – |
| Cc1nnc2ccc(C(=O)N3CCC[C@H]3c3ccc(Cl)cc3)cn12 | 3990 | > 10000 | – | – | – | < 10 | 18 | 19 | – | – | – | – | – | – | – | – | – | – |
| Cc1ncc2sc(C(=O)N3CCC[C@H]3c3ccc(Cl)cc3)nn12 | 3.8 | 70 | – | – | – | 49 | 447 | 655 | – | – | – | – | – | – | – | – | – | – |
| Cc1n[nH]c2ccc(C(=O)N3CCC[C@H]3c3ccc(Cl)cc3)cc12 | 1.4 | 0.6 | – | – | – | 525 | 244 | 79 | – | – | – | – | – | – | – | – | – | – |
| Cc1n[nH]c2ccc(C(=O)N3CCN(C)CC3c3ccc(Cl)cc3)cc12 (centres undefined) | 15 | 230 | – | – | – | 135 | 63 | 40 | – | – | – | – | – | – | – | – | – | – |
